Experimental data as given in ChEMBL document CHEMBL1153018, “Synthesis of pochoxime prodrugs as potent HSP90 inhibitors” (Bioorg Med Chem Lett, 2009).
Calls of active or inactive are those of the source. The calls are words filed in the database; no cut-off is given here.

Legend:
[1] = test system: Mus musculus; assay: Toxicity in ICR-SCID mouse heart assessed as […] level at 100 mg/kg administered 3 times per week for 4 weeks measured after 24 hrs of last dose relative to untreated control; type: organism-based; set-up: dose 100 mg/kg; conditions: in vivo
[2] = Drug level in tumor of human BT474 cells xenografted in ICR-SCID mouse at 150 mg/kg, ip administered after 3 weeks tumor implantation measured after 12 hrs; type: ADME, organism-based, Neoplasm, BT-474; set-up: dose 150 mg/kg, route intraperitoneal; conditions: tumor (human BT474 xenograft), read-out: Drug uptake
[3] = Drug level in tumor of human BT474 cells xenografted in ICR-SCID mouse at 150 mg/kg, ip administered after 3 weeks tumor implantation measured after 24 hrs; type: ADME, organism-based, Neoplasm, BT-474; set-up: dose 150 mg/kg, route intraperitoneal; conditions: tumor (human BT474 xenograft), read-out: Drug uptake
[4] = test system: Mus musculus; assay: Hepatotoxicity in ICR-SCID mouse liver assessed as hematopoietic cell differentiation administered 3 times per week for 4 weeks measured after 24 hrs of last dose; type: toxicity, organism-based; conditions: in vivo
[5] = test system: BT-474; assay: Growth inhibition of human BT474 cells assessed as ATP level after 4 days; type: functional; conditions: BT-474, 96 h
[6] = Growth inhibition of human MDA231 cells assessed as ATP level after 4 days; type: functional; conditions: MDA-MB-231, 96 h
[7] = test system: K562; assay: Growth inhibition of human K562 cells assessed as ATP level after 4 days; type: functional; conditions: K562, 96 h
[8] = test system: MV4-11; assay: Growth inhibition of human MV4-11 cells assessed as ATP level after 4 days; type: functional; conditions: MV4-11, 96 h
[9] = Growth inhibition of human tarceva and iressa-resistant HCC827 cells assessed as ATP level after 4 days; type: functional; conditions: HCC827, 96 h
[10] = test system: NCI-H1975; assay: Growth inhibition of human tarceva and iressa-resistant NCI-H1975 cells assessed as ATP level after 4 days; type: functional; conditions: NCI-H1975, 96 h
[11] = Growth inhibition of human A172 cells assessed as ATP level after 4 days; type: functional; conditions: A 172, 96 h
[12] = test system: HCC827; assay: Induction of mutant EGFR degradation in human tarceva and iressa-resistant HCC827 cells at 20 to 500 nM by Western blotting; type: functional, cell-based
[13] = test system: HCC827; assay: Induction of mutant Met degradation in human tarceva and iressa-resistant HCC827 cells at 20 to 500 nM by Western blotting; type: functional, cell-based
[14] = test system: HCC827; assay: Induction of mutant p-Akt degradation in human tarceva and iressa-resistant HCC827 cells at 20 to 500 nM by Western blotting; type: functional, cell-based
[15] = test system: HCC827; assay: Induction of mutant Cyclin D degradation in human tarceva and iressa-resistant HCC827 cells at 20 to 500 nM by Western blotting; type: functional, cell-based
[16] = test system: NCI-H1975; assay: Induction of mutant p-Akt degradation in human tarceva and iressa-resistant NCI-H1975 cells at 20 to 500 nM by Western blotting; type: functional, cell-based
[17] = Bioavailability in […] dosed mouse; type: ADME, organism-based; conditions: in vivo
[18] = organism: Homo sapiens; assay: Growth inhibition of human tarceva and iressa-resistant […] cells assessed as ATP level after 4 days; type: functional
[19] = Drug level in tumor of human BT474 cells xenografted in ICR-SCID mouse at 200 mg/kg, ip administered after 3 weeks tumor implantation measured after 24 hrs; type: ADME, organism-based, Neoplasm, BT-474; set-up: dose 200 mg/kg, route intraperitoneal; conditions: tumor (human BT474 xenograft), read-out: Drug uptake
[20] = Drug level in tumor of human BT474 cells xenografted in ICR-SCID mouse at 200 mg/kg, ip administered after 3 weeks tumor implantation measured after 48 hrs; type: ADME, organism-based, Neoplasm, BT-474; set-up: dose 200 mg/kg, route intraperitoneal; conditions: tumor (human BT474 xenograft), read-out: Drug uptake
[21] = test system: BT-474; assay: Induction of AKT degradation in human BT474 cells xenografted in ICR-SCID mouse at 100 mg/kg, ip administered after 3 weeks tumor implantation after 6 to 48 hrs by Western blotting; type: functional, organism-based; set-up: dose 100 mg/kg
[22] = test system: BT-474; assay: Induction of Cdk4 degradation in human BT474 cells xenografted in ICR-SCID mouse at 100 mg/kg, ip administered after 3 weeks tumor implantation after 6 to 48 hrs by Western blotting; type: functional, organism-based; set-up: dose 100 mg/kg
[23] = test system: BT-474; assay: Induction of HSP70 degradation in human BT474 cells xenografted in ICR-SCID mouse at 100 mg/kg, ip administered after 3 weeks tumor implantation after 6 to 48 hrs by Western blotting; type: functional, organism-based; set-up: dose 100 mg/kg
[24] = test system: Mus musculus; assay: Hepatotoxicity in ICR-SCID mouse liver assessed as alanine aminotransferase level at 100 mg/kg administered 3 times per week for 4 weeks measured after 24 hrs of last dose relative to untreated control; type: toxicity, organism-based; set-up: dose 100 mg/kg; conditions: in vivo
[25] = test system: Mus musculus; assay: Hepatotoxicity in ICR-SCID mouse liver assessed as aspartate aminotransferase level at 100 mg/kg administered 3 times per week for 4 weeks measured after 24 hrs of last dose relative to untreated control; type: toxicity, organism-based; set-up: dose 100 mg/kg; conditions: in vivo
[26] = test system: Mus musculus; assay: Toxicity in ICR-SCID mouse kidney assessed as creatinine level at 100 mg/kg administered 3 times per week for 4 weeks measured after 24 hrs of last dose relative to untreated control; type: organism-based; set-up: dose 100 mg/kg; conditions: in vivo
[27] = biological target: Heat shock protein HSP 90-alpha (Homo sapiens) (UniProt P07900)
Description: Binding affinity to human HSP90alpha

concentration at 12 h [2]: 6500 ng/g
concentration at 24 h [3]: 7930 ng/g
GI50 [5]: 7 nM
GI50 [7]: 6 nM
GI50 [8]: 3 nM
GI50 [10]: 25 nM
bioavailability [17]: 60.5%
concentration at 24 h [19]: 10200 ng/g
concentration at 48 h [20]: 4020 ng/g
GI50 [27]: 21 nM
Structure (SMILES): O=C1OCC/C=C/CC/C=C/C(=N/OCC(=O)N2CCCCC2)Cc2c(Cl)c(O)cc(O)c21 [POCHOXIME A]
Activity [1]: 15.2 U/L
Activity [4]: Not Active
GI50 [6]: 7 nM
GI50 [9]: 31 nM
GI50 [11]: 42 nM
Activity [12]: Active
Activity [13]: Active
Activity [14]: Active
Activity [15]: Active
Activity [16]: Active
Activity [18]: Active
Activity [21]: Active
Activity [22]: Active
Activity [23]: Active
Activity [24]: 19.3 U/L
Activity [25]: 88.7 U/L
Activity [26]: 0.2 mg/dL
